Data on 16 molecules can be found in ChEMBL document CHEMBL1143276, “Synthesis and antimicrobial activities of halogenated bis(hydroxyphenyl)methanes” (2009).

As usually defined, the MIC is the least concentration at which growth counts as inhibited. Higher therefore signals weaker potency.

Values after ≈ are worked out from the molar mass of the structure shown.

The subject of assay [1] is Candida albicans. Nature of the assay: Antifungal activity against Candida albicans ATCC 10231 after 48 to 72 hrs. The format is functional.
The test system of assay [2] is Salmonella typhimurium. Briefly: Antibacterial activity against Salmonella Typhimurium ATCC 14028 after 24 hrs. Particulars: Salmonella enterica, ATCC 14028, 24 h. It counts as functional, Salmonella enterica subsp. enterica serovar Typhimurium.
The test system of assay [3] is Proteus vulgaris. Briefly: Antibacterial activity against Proteus vulgaris ATCC 3851 after 24 hrs. The format is functional. Particulars: ATCC 3851, 24 h.
Assay [4] concerns Staphylococcus aureus. Nature of the assay: Antibacterial activity against Staphylococcus aureus ATCC 6538p after 24 hrs. It counts as functional.
Assay [5] deals with Trichophyton mentagrophytes. Briefly: Antifungal activity against Trichophyton mentagrophytes IFO 40996 after 48 to 72 hrs. It counts as functional.
The test system of assay [6] is Escherichia coli. Briefly: Antibacterial activity against Escherichia coli ATCC 25922 after 24 hrs. The format is functional. Particulars: ATCC 25922, 24 h.
Assay [7] has as its system Aspergillus fumigatus. Nature of the assay: Antifungal activity against Aspergillus fumigatus HIC 6094 after 48 to 72 hrs. It counts as functional.
The subject of assay [8] is Trichophyton rubrum. Nature of the assay: Antifungal activity against Trichophyton rubrum IFO 9185 after 48 to 72 hrs. The format is functional.
Assay [9] relates to Micrococcus luteus. Briefly: Antibacterial activity against Micrococcus luteus […] after 24 hrs. It counts as functional.
The subject of assay [10] is Bacillus subtilis. Briefly: Antibacterial activity against Bacillus subtilis ATCC 6633 after 24 hrs. The format is functional. Conditions: ATCC 6633, 24 h.

For the molecule `Oc1c(Br)cc(Br)cc1Cc1cc(Br)cc(Br)c1O`, the MIC in assay [1] was above 100 µg/mL; in assay [2], 3.12 µg/mL (≈ 6.05 µM); in assay [3] it was 1.56 µg/mL (≈ 3.02 µM); in [4], 1.56 µg/mL (≈ 3.02 µM); in assay [5], above 100 µg/mL; in [6], above 100 µg/mL. In addition, the MIC in assay [7] was above 100 µg/mL; in [8], above 100 µg/mL; in [9], 1.56 µg/mL (≈ 3.02 µM); in assay [10], 1.56 µg/mL (≈ 3.02 µM).
Take `Oc1cc(Cc2cc(O)c(O)c(Br)c2Br)c(Br)c(Br)c1O`: the MIC was found to be 25 µg/mL (≈ 45.6 µM) in assay [1]; 25 µg/mL (≈ 45.6 µM) in assay [2]; 25 µg/mL (≈ 45.6 µM) in assay [3]; 25 µg/mL (≈ 45.6 µM) in assay [4]; 1.56 µg/mL (≈ 2.85 µM) in assay [5]; 50 µg/mL (≈ 91.3 µM) in assay [6]. Moreover, the MIC worked out at 12.5 µg/mL (≈ 22.8 µM) in assay [7], 12.5 µg/mL (≈ 22.8 µM) in assay [8], 25 µg/mL (≈ 45.6 µM) in [9] and 25 µg/mL (≈ 45.6 µM) in assay [10].
For the molecule `Oc1c(Cl)cc(Cl)cc1Cc1cc(Cl)cc(Cl)c1O`, the minimum inhibitory concentration (MIC) is 100 µg/mL (≈ 296 µM) in assay [1]; 3.12 µg/mL (≈ 9.23 µM) in assay [2]; 0.78 µg/mL (≈ 2.31 µM) in assay [3]; 0.78 µg/mL (≈ 2.31 µM) in [4]; 12.5 µg/mL (≈ 37 µM) in assay [5]; above 100 µg/mL in [6]. Moreover, the minimal inhibitory concentration (MIC) is above 100 µg/mL in [7], above 100 µg/mL in assay [8], 0.78 µg/mL (≈ 2.31 µM) in [9] and 1.56 µg/mL (≈ 4.62 µM) in [10].
For `Oc1cc(Cl)c(Cc2cc(O)c(O)c(Cl)c2Cl)cc1O`, the minimum inhibitory concentration (MIC) in assay [1] came out at 100 µg/mL (≈ 298 µM); in assay [2], 25 µg/mL (≈ 74.5 µM); in assay [3], 25 µg/mL (≈ 74.5 µM); in assay [4] it was 12.5 µg/mL (≈ 37.3 µM); in assay [5], 25 µg/mL (≈ 74.5 µM); in assay [6] it was 100 µg/mL (≈ 298 µM). Also, the MIC in assay [7] was above 100 µg/mL; in assay [8], above 100 µg/mL; in assay [9], 12.5 µg/mL (≈ 37.3 µM); in assay [10], 25 µg/mL (≈ 74.5 µM).
As to `Oc1cc(Cc2cc(O)c(O)c(Cl)c2Cl)c(Cl)c(Cl)c1O`, the minimum inhibitory concentration (MIC) in assay [1] was determined as 50 µg/mL (≈ 135 µM); in [2], 25 µg/mL (≈ 67.6 µM); in assay [3], 25 µg/mL (≈ 67.6 µM); in assay [4], 25 µg/mL (≈ 67.6 µM); in [5], 3.12 µg/mL (≈ 8.43 µM); in [6] it was 50 µg/mL (≈ 135 µM). Further, the MIC was 50 µg/mL (≈ 135 µM) in assay [7], 50 µg/mL (≈ 135 µM) in assay [8], 25 µg/mL (≈ 67.6 µM) in assay [9] and 25 µg/mL (≈ 67.6 µM) in [10].
Turning to `Oc1ccccc1Cc1cc(Cl)ccc1O`, the MIC turned out to be 50 µg/mL (≈ 213 µM) in [1]; 25 µg/mL (≈ 107 µM) in [2]; 25 µg/mL (≈ 107 µM) in [3]; 25 µg/mL (≈ 107 µM) in assay [4]; 6.25 µg/mL (≈ 26.6 µM) in [5]; 50 µg/mL (≈ 213 µM) in assay [6]. Further, the MIC amounted to 50 µg/mL (≈ 213 µM) in assay [7], 50 µg/mL (≈ 213 µM) in assay [8], 25 µg/mL (≈ 107 µM) in assay [9] and 25 µg/mL (≈ 107 µM) in assay [10].
`Oc1cc(Br)c(Cc2cc(O)c(O)cc2Br)cc1O`: the MIC is above 100 µg/mL in [1]; 25 µg/mL (≈ 64.1 µM) in assay [2]; 25 µg/mL (≈ 64.1 µM) in assay [3]; 25 µg/mL (≈ 64.1 µM) in assay [4]; 50 µg/mL (≈ 128 µM) in assay [5]; above 100 µg/mL in assay [6]. In addition, the minimum inhibitory concentration (MIC) in assay [7] was above 100 µg/mL; in [8] it was above 100 µg/mL; in [9], 12.5 µg/mL (≈ 32 µM); in assay [10], 25 µg/mL (≈ 64.1 µM).
Take `Oc1cc(Cc2c(Br)c(O)c(O)c(Br)c2Br)c(Br)c(Br)c1O`: the MIC in [1] was 6.25 µg/mL (≈ 9.97 µM); in assay [2] it was 25 µg/mL (≈ 39.9 µM); in assay [3] it was 12.5 µg/mL (≈ 19.9 µM); in [4] it was 25 µg/mL (≈ 39.9 µM); in assay [5], 1.56 µg/mL (≈ 2.49 µM); in assay [6], 50 µg/mL (≈ 79.8 µM). The MIC in assay [7] worked out at 3.12 µg/mL (≈ 4.98 µM); in assay [8], 1.56 µg/mL (≈ 2.49 µM); in assay [9], 25 µg/mL (≈ 39.9 µM); in assay [10], 25 µg/mL (≈ 39.9 µM).
`Oc1ccc(Cc2cc(O)c(O)cc2Cl)cc1O`: the MIC in assay [1], in [2], in assay [3], in assay [4], in assay [5] and in assay [6] was above 100 µg/mL each time. The MIC is above 100 µg/mL in assay [7], above 100 µg/mL in [8], 100 µg/mL (≈ 375 µM) in assay [9] and above 100 µg/mL in assay [10].
With `Oc1cc(Cl)c(Cc2cc(O)c(O)cc2Cl)cc1O`, the minimum inhibitory concentration (MIC) is above 100 µg/mL in assay [1]; 50 µg/mL (≈ 166 µM) in [2]; 50 µg/mL (≈ 166 µM) in assay [3]; 50 µg/mL (≈ 166 µM) in assay [4]; 50 µg/mL (≈ 166 µM) in assay [5]; above 100 µg/mL in assay [6]. Further, the minimum inhibitory concentration (MIC) in [7] is above 100 µg/mL; in assay [8], above 100 µg/mL; in assay [9], 25 µg/mL (≈ 83 µM); in assay [10], 50 µg/mL (≈ 166 µM).
Turning to `Oc1ccccc1Cc1cccc(Cl)c1O`, the minimum inhibitory concentration (MIC) in [1] worked out at 50 µg/mL (≈ 213 µM); in assay [2], 100 µg/mL (≈ 426 µM); in assay [3], 100 µg/mL (≈ 426 µM); in [4], 50 µg/mL (≈ 213 µM); in assay [5], 12.5 µg/mL (≈ 53.3 µM); in assay [6], 100 µg/mL (≈ 426 µM). The MIC in assay [7] amounted to 100 µg/mL (≈ 426 µM); in assay [8], 100 µg/mL (≈ 426 µM); in [9] it was 50 µg/mL (≈ 213 µM); in [10], 100 µg/mL (≈ 426 µM).
As to `Oc1ccc(Cc2cc(O)c(O)cc2Br)cc1O`, the minimum inhibitory concentration (MIC) in [1], in [2], in [3], in assay [4], in assay [5] and in [6] was above 100 µg/mL throughout. Besides, the MIC in assay [7] is above 100 µg/mL; in assay [8], above 100 µg/mL; in [9] it was 100 µg/mL (≈ 321 µM); in assay [10], above 100 µg/mL.
`Brc1cc2c(cc1Cc1cc3c(cc1Br)OCO3)OCO2`: the minimal inhibitory concentration (MIC) in [1], in [2], in assay [3], in [4], in [5] and in [6] was above 100 µg/mL throughout. For the same molecule, the minimum inhibitory concentration (MIC) in [7], in assay [8], in assay [9] and in assay [10] was above 100 µg/mL each time.
For the molecule `C[C@@H]1[C@H](O)[C@@H](C)/C=C/C=C/C=C/C=C/C=C/C=C/C=C/[C@H](O[C@@H]2O[C@H](C)[C@@H](O)[C@H](N)[C@@H]2O)C[C@@H]2O[C@](O)(C[C@@H](O)C[C@@H](O)[C@H](O)CC[C@@H](O)C[C@@H](O)CC(=O)O[C@H]1C)C[C@H](O)[C@H]2C(=O)O` [AMPHOTERICIN B], the MIC in [1] came to 6.25 µg/mL (≈ 6.76 µM); in [5] it was 3.12 µg/mL (≈ 3.38 µM); in assay [7], 3.12 µg/mL (≈ 3.38 µM); in assay [8], 3.12 µg/mL (≈ 3.38 µM).
Regarding `CC1(C)S[C@@H]2[C@H](NC(=O)[C@H](N)c3ccccc3)C(=O)N2[C@H]1C(=O)O` [AMPICILLIN], the minimum inhibitory concentration (MIC) in [2] is 3.12 µg/mL (≈ 8.93 µM); in [3] it was 3.12 µg/mL (≈ 8.93 µM); in assay [4] it was 1.56 µg/mL (≈ 4.46 µM); in assay [6] it was 12.5 µg/mL (≈ 35.8 µM); in assay [9], 1.56 µg/mL (≈ 4.46 µM); in assay [10] it was 1.56 µg/mL (≈ 4.46 µM).
Regarding `Oc1ccc(Cl)cc1Cc1cc(Cl)ccc1O` [DICHLOROPHEN], the MIC in assay [1] turned out to be 25 µg/mL (≈ 92.9 µM); in [2], 6.25 µg/mL (≈ 23.2 µM); in assay [3] it was 12.5 µg/mL (≈ 46.4 µM); in [4] it was 12.5 µg/mL (≈ 46.4 µM); in [5], 12.5 µg/mL (≈ 46.4 µM); in assay [6] it was 100 µg/mL (≈ 372 µM). For the same molecule, the minimal inhibitory concentration (MIC) in assay [7] amounted to 50 µg/mL (≈ 186 µM); in assay [8] it was 50 µg/mL (≈ 186 µM); in assay [9], 12.5 µg/mL (≈ 46.4 µM); in assay [10] it was 12.5 µg/mL (≈ 46.4 µM).
